According to US7384912B2, “Treatment of bone disorders with skeletal anabolic drugs” (Osteotrophin, LLC, priority 2002, dated 2008):
No end group written: not given here.

Key:
[1] = tested on: ovariectomized osteopenic rats; conditions: ovariectomized osteopenic rats (Vickery et al.); cited from earlier work
[2] = target: T1, PTH/PTHrP receptors in canine renal membranes (Canis lupus familiaris, UniProt Q9TU31); assay: Competition binding to canine renal cortical membranes; conditions: Scatchard analysis of equilibrium binding data
T1 construct: The renal cortex from adult mongrel dogs was homogenized; from tissue; host or cells: renal cortex of adult mongrel dogs, purified membranes
T1 sequence (Q9TU31 29-595): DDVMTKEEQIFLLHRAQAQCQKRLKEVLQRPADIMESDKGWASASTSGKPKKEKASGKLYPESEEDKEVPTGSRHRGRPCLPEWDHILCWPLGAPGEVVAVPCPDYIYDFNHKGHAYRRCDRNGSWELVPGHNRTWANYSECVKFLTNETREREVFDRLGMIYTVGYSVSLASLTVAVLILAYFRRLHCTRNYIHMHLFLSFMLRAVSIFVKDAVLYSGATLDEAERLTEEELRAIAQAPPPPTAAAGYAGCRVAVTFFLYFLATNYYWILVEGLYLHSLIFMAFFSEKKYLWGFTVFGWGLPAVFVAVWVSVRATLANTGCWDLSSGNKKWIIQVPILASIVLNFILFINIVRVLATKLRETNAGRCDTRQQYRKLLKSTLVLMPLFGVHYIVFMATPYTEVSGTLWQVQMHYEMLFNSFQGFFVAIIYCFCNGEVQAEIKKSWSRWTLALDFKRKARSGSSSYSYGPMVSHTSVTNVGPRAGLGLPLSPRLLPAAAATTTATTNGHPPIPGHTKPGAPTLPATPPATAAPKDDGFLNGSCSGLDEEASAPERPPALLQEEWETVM
Experimental: The renal cortex from adult mongrel dogs was homogenized in 3 volumes (ml:gm) of 0.25 M sucrose containing 5.0 mM Tris HCl (pH 7.5), 1.0 mM EDTA, 6.5 KIU/ml aprotinin and 50 μg/ml bacitracin (SET buffer) at 4° C. with ten 30 second strokes of a motor-driven teflon pestle at 2000 RPM. The homogenate was filtered through one thickness of nylon mesh and centrifuged at 1475×g for 10 mm. The supernatant was discarded and the pellet resuspended in 1 volume of 2.0 M sucrose, 5 mM Tris HCl, 1 mM EDTA (pH 7.5), 6.5 KIU/ml aprotinin, and 50 μg/ml bacitracin. This was centrifuged at 13,300×g for 10 minutes and the pellet discarded. The supernatant was diluted 8-fold with ET buffer (5 mM Tris HCl, 1 mM EDTA (Ph 7.5), 6.5 KIU/ml aprotinin, and 50 μg/ml bacitracin) and centrifuged at 20,000×g for 15 min. […]
Binding assays were conducted in siliconized 12×75 mm borosilicate glass test tubes at 20° C. in a final volume of 0.2 ml. […] Radioactivity in both the pellet and supernatant was measured.
Dissociation constants (Kd) were determined by Scatchard analysis of the data obtained from competitive binding experiments using radioligand and increasing concentrations of unlabeled ligand. […] Statistical differences were assessed by paired Student's t test. […] Significance was determined using a partial F-test.

[3] = tested on: adenylate cyclase in SaOS-2 membranes; assay: Adenylate cyclase assay in SaOS-2 cell membranes; assay type: biochemical, human; conditions: 30° C., 30 min
Experimental: (§1) Therefore, dose response curves for each peptide were generated at 30° C. for 10 min in human kidney and 30° C. for 30 min in SaOS-2 membranes. As with the intact cell adenylate cyclase assays, kidney and bone cell membrane adenlyate cyclase assays were performed under binding assay conditions. Results are expresses as percentage of maximal cAMP stimulation in order to compare peptide dose responses from different experiments.
(§2) Statistical differences were assessed by paired and unpaired two-tailed Student's t test.

[4] = tested on: adenylate cyclase in SaOS-2 intact cells; assay: Adenylate cyclase assay in SaOS-2 intact cells; assay type: cell-based, human; conditions: 15° C., 60 min
Experimental: Adenylate cyclase-stimulating activity was examined in confluent SAOS-2 cells as previously described for ROS 17/2.8 cells (Merendino et al., Science 231:388-390, (1986)), with the following modification. The intact cell assay was conducted at 15° C., the same conditions employed for binding to intact SaOS-2 cells (vide supra). […] Dose response curves for each peptide were thus generated using 60 min incubations at 15° C. under binding assay conditions.
as §2

[5] = target: T2, adenylate cyclase in human renal cortical membranes (RCM) (Homo sapiens, UniProt Q03431); assay: Adenylate cyclase assay in human kidney membranes; assay type: biochemical; conditions: both membrane preparations (RCM and SaOS-2 membranes)
T2 sequence (Q03431 27-593): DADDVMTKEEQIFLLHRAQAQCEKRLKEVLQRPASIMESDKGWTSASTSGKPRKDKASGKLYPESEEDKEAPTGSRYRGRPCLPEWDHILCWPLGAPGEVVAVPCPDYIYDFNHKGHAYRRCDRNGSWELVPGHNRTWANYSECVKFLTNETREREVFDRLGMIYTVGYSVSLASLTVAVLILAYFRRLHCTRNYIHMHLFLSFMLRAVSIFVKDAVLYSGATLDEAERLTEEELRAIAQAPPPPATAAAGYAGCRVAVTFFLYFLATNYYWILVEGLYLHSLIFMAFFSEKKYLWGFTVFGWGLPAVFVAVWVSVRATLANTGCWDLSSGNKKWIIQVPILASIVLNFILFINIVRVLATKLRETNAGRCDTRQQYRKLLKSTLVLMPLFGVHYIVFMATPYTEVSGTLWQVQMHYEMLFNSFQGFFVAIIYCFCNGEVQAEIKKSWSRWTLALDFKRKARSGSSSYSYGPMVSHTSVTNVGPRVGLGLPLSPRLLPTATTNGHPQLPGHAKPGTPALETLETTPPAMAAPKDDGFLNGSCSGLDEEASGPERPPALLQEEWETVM
Experimental: as §1, §2

[6] = tested on: adenylate cyclase in canine renal cortical membranes (CRCM); assay: Canine renal cortical membrane adenylate cyclase assay, standard assay; assay type: biochemical; conditions: 30 min, 30° C.
Text: Results are expressed as the percent increment in adenylate cyclase activity in tubes containing the peptides as compared with tubes containing vehicle only.

[7] = tested on: adenylate cyclase in highly purified canine renal membranes; assay: Canine renal adenylate cyclase assay under binding assay conditions; assay type: biochemical; conditions: 20° C., 20 min, with bacitracin
Experimental: Adenylate cyclase-stimulating activity of both peptides was also examined using highly purified 32% interface membranes. Incubation was carried out under binding conditions at 20° C. for 20 min in the presence of the protease inhibitor, bacitracin (200 μg/ml). All other aspects of this assay were identical to the standard assay.

[8] = tested on: ovariectomized (OVX) rats; assay: Body weight, serum chemistries, kidney calcium and deaths in ovariectomized rats
Experimental: All studies were performed using virus- and antibody-negative female Sprague-Dawley rats from Harlan Sprague-Dawley (Indianapolis, Ind.). All rats underwent sham ovariectomy or ovariectomy at 5 months of age. Studies began at six months of age, one month following ovariectomy or sham operation. Rats were maintained on a diet containing 0.5% calcium and 0.4% phosphorus. The light cycle was 12 hours.
The protocol employed is described in schematic form in Table IV. Animals were randomly assigned to 17 groups of 10 as described in the Table. […] For the peptide-treated animals, the peptide was administered daily, subcutaneously at a dose of 40 μg/kg/day, in the vehicle described above. For vehicle-treated animals, vehicle alone was administered in an identical fashion.
Serum and urine chemistries as described in Table XI were performed using standard autoanalyser methods (Boehringer-Mannheim-Hitachi, Indianapolis, Ind.). Kidney calcium content was determined following extraction of whole kidneys in 5% trichloroacetic acid, followed by calcium measurement by calcium analyzer (Calcette, Midfield, Mass.).

Substance: [MAP1-10]22-31 hPTHrP-(1-34)NH2
- anabolic activity versus parent peptide [1]: greater anabolic activity than the parent peptide

Substance: [Nle^8,18,Tyr^34]hPTH-(1-34)amide
- Bmax [2]: 2.73±0.31 pmol/mg protein

Substance: rat (r)PTH-(1-34) [rPTH-(1-34)]
- EC50 [3]: 0.09 ± 0.03 nM
- EC50 [4]: 0.9 ± 0.1 nM
- more potent than hPTHrP-(1-36) in stimulating adenylate cyclase [5]: 10 fold

Substance: bovine (b)PTH-(1-34) [bPTH-(1-34)]
- EC50 [3]: 0.5 ± 0.06 nM
- potency relative to PTHrP-(1-36) [6]: greater than 6 fold
- EC50 [4]: 1.2 ± 0.1 nM
- adenylate cyclase stimulation greater than for PTHrP-(1-36) [7]: 15 fold

Substance: SVSEIQLLHDKGKHLASQERVEWLRKKLQDVHTA [SDZ PTH 893, Leu^8, Asp^10, Lys^11, Ala^16, Gln^18, Thr^33, Ala^34hPTH(1-34)]
- treated animals that died during the study ([8]; 30 OVX rats per peptide, 40 μg/kg/day, six month study): 13%
- renal calcium content, in words ([8]; rat, in vivo): marked increases in renal calcium content
